Measurements taken from US6914045B2, “Glycopeptide antibiotics” (Wyeth Holdings Corporation, priority 2001, dated 2005).
In brackets after ≈: the same amount, converted by molar mass.

Experiments:
Assay in all cases: in vitro antibacterial evaluation, MIC by broth dilution
Assay type in all cases: cell-based
[1] = tested on: Escherichia coli; details: 18 hours at 35° C.
[2] = tested on: Enterococcus sp.; details: broth dilution, 18 hours at 35° C.
Method in brief: (§1)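 Test organisms, which included recent clinical isolates resistant to methicillin, penicillin and/or vancomycin, were inoculated at 5×10^5 CFU/mL into Muller-Hinton II […] containing antibiotic at 64-0.06 μg/mL. Minimum inhibitory concentrations were then read as the lowest level inhibiting growth.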

[3] = tested on: Streptococcus sp.; details: broth dilution, 18 hours at 35° C.
Method in brief: as §1

[4] = tested on: Staphylococcus sp.; details: broth dilution, 18 hours at 35° C.; for MIC Staphylococcus aureus (GC 1131): strain GC 1131
Method in brief: as §1

CC(c1ccccc1)C1NC(=O)CNC(=O)C(CO)NC(=O)C(CC2CNC(=N)N2C2OC(CO)C(O)C(O)C2O)NC(=O)C(CC2CNC(=N)N2)NC(=O)C(Cc2ccc(OC3OC(CO)C(OC4OC5COC(c6ccc(OCc7ccccc7)cc6)OC5C(O)C4O)C(O)C3O)cc2)NC1=O (centres unmarked) [Example 191]
MIC Escherichia coli (ATCC 25922) [1]: >64 µg/mL
MIC Escherichia coli (GC 4559) [1]: 64 µg/mL (≈ 43.9 µM)
MIC Escherichia coli (GC 4560) [1]: 8 µg/mL (≈ 5.49 µM)
MIC Enterococcus avium (GC 4558) [2]: 4 µg/mL (≈ 2.74 µM)
MIC Enterococcus faecalis (ATCC 29212) [2]: 16 µg/mL (≈ 11 µM)
MIC Enterococcus faecalis (GC 2242) [2]: 8 µg/mL (≈ 5.49 µM)
MIC Enterococcus faecalis (GC 2691) [2]: 8 µg/mL (≈ 5.49 µM)
MIC Enterococcus faecalis (GC 3059) [2]: 8 µg/mL (≈ 5.49 µM)
MIC Enterococcus faecalis (GC 4552) [2]: 16 µg/mL (≈ 11 µM)
MIC Enterococcus faecalis (GC 4553) [2]: 8 µg/mL (≈ 5.49 µM)
MIC Enterococcus faecalis (GC 4554) [2]: 16 µg/mL (≈ 11 µM)
MIC Enterococcus faecalis (GC 6189) [2]: 8 µg/mL (≈ 5.49 µM)
MIC Enterococcus faecium (GC 2243) [2]: 8 µg/mL (≈ 5.49 µM)
MIC Enterococcus faecium (GC 4556) [2]: 8 µg/mL (≈ 5.49 µM)
MIC Enterococcus faecium (GC 4557) [2]: 4 µg/mL (≈ 2.74 µM)
MIC Enterococcus faecalis (ATCC 29212) ([2]; inoculum 5×10^5 CFU/mL, strain ATCC 29212): 16 µg/mL (≈ 11 µM)
MIC Enterococcus faecalis (GC 2242) ([2]; inoculum 5×10^5 CFU/mL, strain GC 2242): 8 µg/mL (≈ 5.49 µM)
MIC Enterococcus faecium (GC 2243) ([2]; inoculum 5×10^5 CFU/mL, strain GC 2243): 8 µg/mL (≈ 5.49 µM)
MIC Enterococcus faecalis (GC 2691) ([2]; inoculum 5×10^5 CFU/mL, strain GC 2691): 8 µg/mL (≈ 5.49 µM)
MIC Enterococcus faecalis (GC 3059) ([2]; inoculum 5×10^5 CFU/mL, strain GC 3059): 8 µg/mL (≈ 5.49 µM)
MIC Enterococcus faecalis (GC 4552) ([2]; inoculum 5×10^5 CFU/mL, strain GC 4552): 16 µg/mL (≈ 11 µM)
MIC Enterococcus faecalis (GC 4553) ([2]; inoculum 5×10^5 CFU/mL, strain GC 4553): 8 µg/mL (≈ 5.49 µM)
MIC Enterococcus faecalis (GC 4554) ([2]; inoculum 5×10^5 CFU/mL, strain GC 4554): 16 µg/mL (≈ 11 µM)
MIC Enterococcus faecium (GC 4556) ([2]; inoculum 5×10^5 CFU/mL, strain GC 4556): 8 µg/mL (≈ 5.49 µM)
MIC Enterococcus faecium (GC 4557) ([2]; inoculum 5×10^5 CFU/mL, strain GC 4557): 4 µg/mL (≈ 2.74 µM)
MIC Enterococcus avium (GC 4558) ([2]; inoculum 5×10^5 CFU/mL, strain GC 4558): 4 µg/mL (≈ 2.74 µM)
MIC Enterococcus faecalis (GC 6189) ([2]; inoculum 5×10^5 CFU/mL, strain GC 6189): 8 µg/mL (≈ 5.49 µM)
MIC Streptococcus agalactiae (GC 4564) [3]: 2 µg/mL (≈ 1.37 µM)
MIC Streptococcus pneumoniae (ATCC 6301) [3]: 1 µg/mL (≈ 0.686 µM)
MIC Streptococcus pneumoniae (GC 1894) [3]: 0.25 µg/mL (≈ 0.172 µM)
MIC Streptococcus pneumoniae (GC 4565) [3]: 2 µg/mL (≈ 1.37 µM)
MIC Streptococcus pyogenes (GC 4563) [3]: 2 µg/mL (≈ 1.37 µM)
MIC Streptococcus pneumoniae (ATCC 6301) ([3]; inoculum 5×10^5 CFU/mL, strain ATCC 6301): 1 µg/mL (≈ 0.686 µM)
MIC Streptococcus pneumoniae (GC 1894) ([3]; inoculum 5×10^5 CFU/mL, strain GC 1894): 0.25 µg/mL (≈ 0.172 µM)
MIC Streptococcus pyogenes (GC 4563) ([3]; inoculum 5×10^5 CFU/mL, strain GC 4563): 2 µg/mL (≈ 1.37 µM)
MIC Streptococcus agalactiae (GC 4564) ([3]; inoculum 5×10^5 CFU/mL, strain GC 4564): 2 µg/mL (≈ 1.37 µM)
MIC Streptococcus pneumoniae (GC 4565) ([3]; inoculum 5×10^5 CFU/mL, strain GC 4565): 2 µg/mL (≈ 1.37 µM)
MIC Staphylococcus aureus (GC 1131) ([4]; inoculum 5×10^5 CFU/mL): 8 µg/mL (≈ 5.49 µM)
MIC Staphylococcus aureus (ATCC 29213) ([4]; strain ATCC 29213): 4 µg/mL (≈ 2.74 µM)
MIC Staphylococcus aureus (GC 1131) [4]: 8 µg/mL (≈ 5.49 µM)
MIC Staphylococcus aureus (GC 3051) ([4]; strain GC 3051): 8 µg/mL (≈ 5.49 µM)
MIC Staphylococcus aureus (GC 3053) ([4]; strain GC 3053): 8 µg/mL (≈ 5.49 µM)
MIC Staphylococcus aureus (GC 4541) ([4]; strain GC 4541): 4 µg/mL (≈ 2.74 µM)
MIC Staphylococcus aureus (GC 4542) ([4]; strain GC 4542): 4 µg/mL (≈ 2.74 µM)
MIC Staphylococcus aureus-SMITH (GC 4543) ([4]; strain GC 4543): 4 µg/mL (≈ 2.74 µM)
MIC Staphylococcus aureus (GC 4544) ([4]; strain GC 4544): 8 µg/mL (≈ 5.49 µM)
MIC Staphylococcus aureus (GC 4545) ([4]; strain GC 4545): 4 µg/mL (≈ 2.74 µM)
MIC Staphylococcus haemolyticus (GC 4546) ([4]; strain GC 4546): 4 µg/mL (≈ 2.74 µM)
MIC Coagulase Negative Staphylococcus (GC 4547) ([4]; strain GC 4547): 8 µg/mL (≈ 5.49 µM)
MIC Coagulase Negative Staphylococcus (GC 4548) ([4]; strain GC 4548): 4 µg/mL (≈ 2.74 µM)
MIC Coagulase Negative Staphylococcus (GC 4549) ([4]; strain GC 4549): 4 µg/mL (≈ 2.74 µM)
MIC Coagulase Negative Staphylococcus (GC 4551) ([4]; strain GC 4551): 4 µg/mL (≈ 2.74 µM)
MIC Coagulase Negative Staphylococcus (GC 6257) ([4]; strain GC 6257): 4 µg/mL (≈ 2.74 µM)
